BindingDB's records for doi:10.1021/acs.jmedchem.8b00408 (Duquesne University, 2018)

Assays:
[1] = Binding affinity to human PCFT4 expressed in human HeLa R1-11 cells assessed as antiproliferative activity measured as reduction in cell growth after 96 hrs by Cell-Titer Blue assay
[2] = Binding affinity to human RFC2 expressed in human HeLa R1-11 cells assessed as antiproliferative activity measured as reduction in cell growth after 96 hrs by Cell-Titer Blue assay
[3] = Binding affinity to human RFC expressed in Chinese hamster PC43-10 cells assessed as antiproliferative activity measured as reduction in cell growth after 96 hrs by Cell-Titer Blue assay
[4] = Binding affinity to human PCFT expressed in Chinese hamster R2/PCFT4 cells assessed as antiproliferative activity measured as reduction in cell growth after 96 hrs by Cell-Titer Blue assay
[5] = biological target: Folate receptor alpha (Homo sapiens) (UniProt P15328); test: Binding affinity to human FRalpha expressed in human HeLa R1-11-FR2 cells assessed as antiproliferative activity measured as reduction in cell growth after 96 hrs by Cell-Titer Blue assay
Sequence of Folate receptor alpha (Homo sapiens) (P15328 whole entry, looked up): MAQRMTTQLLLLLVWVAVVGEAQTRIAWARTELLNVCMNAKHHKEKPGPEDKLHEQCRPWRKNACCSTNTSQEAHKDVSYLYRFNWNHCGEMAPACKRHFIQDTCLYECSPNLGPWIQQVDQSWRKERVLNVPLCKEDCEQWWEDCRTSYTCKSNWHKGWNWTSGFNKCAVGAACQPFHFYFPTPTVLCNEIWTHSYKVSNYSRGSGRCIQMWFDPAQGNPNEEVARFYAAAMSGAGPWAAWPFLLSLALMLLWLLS

[6] = Binding affinity to human FRbeta expressed in Chinese hamster D4 cells assessed as antiproliferative activity measured as reduction in cell growth after 96 hrs by Cell-Titer Blue assay
[7] = Binding affinity to human FRalpha expressed in Chinese hamster RT16 cells assessed as antiproliferative activity measured as reduction in cell growth after 96 hrs by Cell-Titer Blue assay

| IC50 [4] [nM] | IC50 [5] [nM] | IC50 [6] [nM] | IC50 [7] [nM] | SMILES | IC50 [1] [nM] | IC50 [2] [nM] | IC50 [3] [nM] |
| --- | --- | --- | --- | --- | --- | --- | --- |
| – | – | – | – | Nc1nc2[nH]c(CCCc3csc(C(=O)N[C@@H](CCC(=O)O)C(=O)O)c3)cc2c(=O)[nH]1 | 40 | 63 | – |
| – | – | – | – | Nc1nc2[nH]c(CCCc3ccc(C(=O)N[C@@H](CCC(=O)O)C(=O)O)s3)cc2c(=O)[nH]1 | – | 444 | 106 |
| – | – | – | – | Nc1nc2[nH]c(CCCCc3csc(C(=O)N[C@@H](CCC(=O)O)C(=O)O)c3)cc2c(=O)[nH]1 | 73 | > 1000 | > 1000 |
| – | – | – | – | Nc1nc2[nH]c(CCCCc3ccc(C(=O)N[C@@H](CCC(=O)O)C(=O)O)nc3)cc2c(=O)[nH]1 | 9 | 634 | > 1000 |
| 3.8 | 5.2 | 3.9 | – | Nc1nc2[nH]c(CCCc3ccc(C(=O)N[C@@H](CCC(=O)O)C(=O)O)c(F)c3)cc2c(=O)[nH]1 | 5.5 | 507 | 62 |
| 6 | – | – | – | Nc1nc2[nH]c(CCCCc3csc(C(=O)N[C@@H](CCC(=O)O)C(=O)O)c3F)cc2c(=O)[nH]1 | 5 | 213 | > 1000 |
| 1.5 | 3.1 | 0.19 | 0.14 | Nc1nc2[nH]c(CCCc3csc(C(=O)N[C@@H](CCC(=O)O)C(=O)O)c3F)cc2c(=O)[nH]1 | – | 66 | – |
| 207 | – | 0.93 | 1.4 | Nc1nc2[nH]c(CCCCc3ccc(C(=O)N[C@@H](CCC(=O)O)C(=O)O)cc3F)cc2c(=O)[nH]1 | – | – | – |
| – | – | – | – | Nc1nc2[nH]c(CCCc3ccc(C(=O)N[C@@H](CCC(=O)O)C(=O)O)cc3)cc2c(=O)[nH]1 [(S)-2-(4-(3-(2-amino-4-oxo-4,7-dihydro-3H-pyrrolo[2,3-d]pyrimidin-6-yl)propyl)benzamido)pentanedioic acid] | 9.7 | > 1000 | 304 |
| – | – | – | – | Nc1nc2[nH]c(CCCCc3ccc(C(=O)N[C@@H](CCC(=O)O)C(=O)O)cc3)cc2c(=O)[nH]1 [N-{4-[4-(2-Amino-4-oxo-4,7-dihydro-3H-pyrrolo[2,3-d]pyrimidin-6-yl)butyl]benzoyl}-L-glutamic Acid] | – | > 1000 | > 1000 |
